Test results: patent publication US7084127B2, “C2,5′-disubstituted and N6, C2,5′-trisubstituted adenosine derivatives and their different uses” (Universiteit Leiden, priority 2001, dated 2006)
Like-named read-outs stand apart in the source and are kept apart here.

Tests used:
[1] = target: T1, A2A receptor in rat striatum (Rattus norvegicus, UniProt P30543); assay: Radioligand binding, displacement of [3H]ZM241385 from rat striatal membranes;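 note: displacement assays run in the absence of GTP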
T1 construct: the A2A receptor in rat striatum; from tissue; host or cells: rat striatum
Experimental: (§1) Incubations were carried out for 1 hr at 37° C. and were terminated by rapid filtration over Whatman GF/B filters, using a Brandell cell harvester (Brandell, Gaithersburg, Md.). Tubes were washed three times with 3 ml of buffer. Radioactivity was determined in a Beckman 5500B γ-counter. Nonspecific binding was determined in the presence of 10^−5 M R-PIA.
(§2) All compounds were tested in radioligand binding assays to determine their affinities for the adenosine A1 receptor in rat brain cortex, the A2A receptor in rat striatum and the human A3 receptor as expressed in HEK 293 cells (Table 2). […] AB-MECA, an A3 receptor agonist, was also used. Displacement experiments were performed in the absence of GTP.

[2] = target: T2, human A3 receptor as expressed in HEK 293 cells (Homo sapiens, UniProt P0DMS8); assay: Radioligand binding, displacement of [125I]AB MECA, HEK 293 cell membranes
T2 construct: expressed in transfected cells; host or cells: HEK 293 cells (membrane suspension)
T2 sequence (P0DMS8 1-318): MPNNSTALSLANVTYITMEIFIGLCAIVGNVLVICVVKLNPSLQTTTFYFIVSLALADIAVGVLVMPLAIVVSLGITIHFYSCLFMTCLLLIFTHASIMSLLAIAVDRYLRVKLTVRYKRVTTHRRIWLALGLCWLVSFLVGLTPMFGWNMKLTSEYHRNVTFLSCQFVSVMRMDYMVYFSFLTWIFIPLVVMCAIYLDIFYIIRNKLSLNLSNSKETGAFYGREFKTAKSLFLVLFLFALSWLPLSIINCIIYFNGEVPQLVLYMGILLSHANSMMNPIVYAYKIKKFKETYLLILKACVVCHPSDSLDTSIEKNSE
Experimental: as §1, §2

[3] = target: T3, human adenosine A1 receptors expressed in CHO cells (Homo sapiens, UniProt P30542); assay: cAMP assay A1 (inhibition of forskolin-induced cAMP production); assay type: cell-based; conditions: for % inhib. A1 of forskolin-induced cAMP: compared to reference full agonist CPA (10 μM) in A1 CHO cells, tested at ±100 × Ki, ±SEM, n = 3, forskolin 10 μM
T3 construct: expressed in transfected cells; host or cells: CHO cells
T3 sequence (P30542 1-326): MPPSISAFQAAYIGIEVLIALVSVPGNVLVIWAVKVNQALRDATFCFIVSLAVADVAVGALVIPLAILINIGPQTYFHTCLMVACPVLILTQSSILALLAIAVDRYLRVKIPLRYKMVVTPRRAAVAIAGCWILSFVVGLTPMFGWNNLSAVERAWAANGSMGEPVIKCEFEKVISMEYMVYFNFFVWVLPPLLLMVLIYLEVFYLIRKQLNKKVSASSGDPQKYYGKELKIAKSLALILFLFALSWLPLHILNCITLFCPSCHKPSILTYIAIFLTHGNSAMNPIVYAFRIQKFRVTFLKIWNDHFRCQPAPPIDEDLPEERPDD
Experimental: cAMP assay A1 and A3 CHO cells expressing either the human adenosine A1 or A3 receptor were grown overnight as a monolayer in 24 wells tissue culture plates (400 μl/well; 2×10^5cells/well). cAMP generation was performed in Dulbecco's Modified Eagles Medium (DMEM)/N-2-hydroxyethylpiperazin-N′-2-ethansulfonic acid (HEPES) buffer (0.60 g HEPES/50 ml DMEM pH 7.4). […] After incubation for 40 minutes at 37° C., 100 μl forskolin (final concentration 10 μM) was added. After 15 minutes at 37° C., the reaction was terminated by removing the medium and adding 200 μL 0.1 M HCl. Wells were stored at −20° C. until assay
The amounts of cAMP were determined after a protocol with cAMP binding protein^28 with the following minor modifications. As a buffer was used 150 mM K2HPO4/10 mM EDTA/0.2% Bovine Serum Albumine (BSA) at pH 7.5. Samples (20 μl+30 μl 0.1 M HCl) were incubated for at least 2.5 hours at 0° C. before filtration over Whatman GF/B filters. Filters were additionally rinsed with 2×2 ml TrisHCl buffer (pH 7.4, 4° C.). Filters were counted in Packard Emulsifier Safe scintillation fluid (3.5 ml) after 24 hours of extraction. […]

[4] = target: T4, adenosine A1 receptor in rat brain cortex (Rattus norvegicus, UniProt P25099); assay: Radioligand binding, displacement of [3H]DPCPX from rat cortical membranes; conditions: ligand 10^−5 M
T4 construct: the adenosine A1 receptor in rat brain cortex; from tissue; host or cells: rat brain cortex
T4 sequence (P25099 1-326): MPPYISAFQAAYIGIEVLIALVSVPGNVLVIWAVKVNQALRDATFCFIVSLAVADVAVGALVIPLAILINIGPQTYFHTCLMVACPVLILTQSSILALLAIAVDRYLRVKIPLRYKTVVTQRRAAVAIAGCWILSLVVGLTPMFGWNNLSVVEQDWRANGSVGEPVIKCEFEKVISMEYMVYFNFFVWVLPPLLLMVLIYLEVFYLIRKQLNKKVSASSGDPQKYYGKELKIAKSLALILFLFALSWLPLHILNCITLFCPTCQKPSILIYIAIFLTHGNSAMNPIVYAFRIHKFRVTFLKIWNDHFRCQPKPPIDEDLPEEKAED
Experimental: as §1, §2

[5] = target: T5, human adenosine A2A receptors expressed in CHO cells (Homo sapiens, UniProt P29274); assay: cAMP assay A2A (stimulation of cAMP production); assay type: cell-based
T5 construct: expressed in transfected cells; host or cells: CHO cells
Experimental: cAMP assay A2A CHO cells expressing human adenosine A2A receptors were grown overnight as a monolayer in 24 wells tissue culture plates (400 μL/well; 2×10^5 cells/well). cAMP generation was performed in Dulbecco's Modified Eagles Medium (DMEM)/N-2-hydroxyethylpiperazin-N′-2-ethanesulfonic acid (HEPES) buffer (0.60 g HEPES/50 mL DMEM pH 7.4). To each well, washed three times with DMEM/HEPES buffer (250 μλ), 100 μl DMEM/HEPES buffer, 100 μl adenosine deaminase (final concentration 5 IU/ml) and 100 μl of a mixture of rolipram and cilostamide (final concentration 50 μM each) were added. After incubation for 40 minutes at 37° C., 100 μl agonist was added. […] After 15 minutes at 37° C., the reaction was terminated by removing the medium and adding 200 μl 0.1 M HCl. Wells were stored at −20° C. until assay.
The amounts of cAMP were determined after a protocol with cAMP binding protein^36 with the following minor modifications. As a buffer was used 150 mM K2HPO4/10 mM EDTA/0.2% Bovine Serum Albumine (BSA) at pH 7.5. Samples (20 μl+30 μl 0.1 M HCl) were incubated for at least 2.5 hours at 0° C. before filtration over Whatman GF/B filters. […] Filters were counted in Packard Emulsifier Safe scintillation fluid (3.5 ml) after 24 hours of extraction.
Data Analysis Apparent Ki and EC50 values were computed from the displacement curves by non-linear regression of the competition curves with the software package Prism (Graph Pad, San Diego, Calif.)

[6] = target: T6, human adenosine A3 receptor (Homo sapiens, UniProt P0DMS8); assay: cAMP assay A3 (inhibition of forskolin-induced cAMP production); assay type: cell-based
T6 construct: expressed in transfected cells; HEK 293 cells according to b145 and b219
T6 sequence (P0DMS8 1-318): T2 sequence (P0DMS8 1-318)
Experimental: cAMP assay A3 CHO cells expressing the human adenosine A3 receptor were grown overnight as a monolayer in 24 wells tissue culture plates (400 μl/well; 2×10^5 cells/well). cAMP generation was performed in Dulbecco's Modified Eagles Medium (DMEM)/N-2-hydroxyethylpiperazin-N′-2-ethansulfonic acid (HEPES) buffer (0.60 g HEPES/50 ml DMEM pH 7.4). […] After incubation for 40 minutes at 37° C., 100 μl forskolin (final concentration 10 μM) was added. After 15 minutes at 37° C., the reaction was terminated by removing the medium and adding 200 μl 0.1 M HCl. Wells were stored at −20° C. until assay. The amounts of cAMP were determined after a protocol with cAMP binding protein^36 with the following minor modifications. As a buffer was used 150 mM K2HPO4/10 mM EDTA/0.2% Bovine Serum Albumine (BSA) at pH 7.5. Samples (20 μl+30 μl 0.1 M HCl) were incubated for at least 2.5 hours at 0° C. before filtration over Whatman GF/B filters. […] Filters were counted in Packard Emulsifier Safe scintillation fluid (3.5 ml) after 24 hours of extraction.
All compounds were also tested in functional assays.
The ability of the compounds to inhibit forskolin-stimulated (10 μM) cAMP production via the adenosine A3 receptor was also studied.
The amounts of cAMP were determined after a protocol with cAMP binding protein^28 with the following minor modifications. As a buffer was used 150 mM K2HPO4/10 mM EDTA/0.2% Bovine Serum Albumine (BSA) at pH 7.5. Samples (20 μl+30 μl 0.1 M HCl) were incubated for at least 2.5 hours at 0° C. before filtration over Whatman GF/B filters. […] Filters were counted in Packard Emulsifier Safe scintillation fluid (3.5 ml) after 24 hours of extraction.

[7] = [3H]ZM241385, rat striatal membranes
[8] = [3H]ZM241385, rat striatal membranes, ligand 10^−5 M
[9] = cAMP production, human A2A in CHO cells
[10] = compared to full agonist CGS 21680

T1 sequence (P30543 whole entry): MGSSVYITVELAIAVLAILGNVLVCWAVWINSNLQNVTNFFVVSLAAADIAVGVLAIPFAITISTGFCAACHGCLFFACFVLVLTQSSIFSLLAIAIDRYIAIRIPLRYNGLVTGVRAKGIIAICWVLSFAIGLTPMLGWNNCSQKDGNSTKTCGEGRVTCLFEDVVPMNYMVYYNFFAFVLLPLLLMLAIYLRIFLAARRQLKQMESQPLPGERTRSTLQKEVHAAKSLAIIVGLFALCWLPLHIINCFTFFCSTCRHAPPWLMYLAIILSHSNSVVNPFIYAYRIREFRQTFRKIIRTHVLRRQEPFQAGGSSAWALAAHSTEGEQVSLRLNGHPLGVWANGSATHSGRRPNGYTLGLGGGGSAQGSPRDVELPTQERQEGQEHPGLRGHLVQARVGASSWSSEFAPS
T5 sequence (P29274 whole entry): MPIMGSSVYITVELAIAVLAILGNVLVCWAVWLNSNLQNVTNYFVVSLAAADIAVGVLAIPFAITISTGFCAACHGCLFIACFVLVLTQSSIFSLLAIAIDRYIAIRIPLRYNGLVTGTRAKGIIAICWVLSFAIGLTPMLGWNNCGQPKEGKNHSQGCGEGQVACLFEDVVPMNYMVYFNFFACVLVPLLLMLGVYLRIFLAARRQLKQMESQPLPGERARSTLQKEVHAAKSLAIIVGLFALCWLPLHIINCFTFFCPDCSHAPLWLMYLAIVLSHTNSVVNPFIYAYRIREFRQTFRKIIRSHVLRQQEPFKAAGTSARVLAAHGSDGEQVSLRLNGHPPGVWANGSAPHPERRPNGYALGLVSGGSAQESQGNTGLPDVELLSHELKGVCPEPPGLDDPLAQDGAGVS

| Molecule | Ki [1, 7] [nM] | % displacement at 10^−5 M A2A [1, 8] [%] | % inhib. A1 of forskolin-induced cAMP [3] [%] | further results |
| --- | --- | --- | --- | --- |
| 5′-Deoxy-2-iodo-5′-methylthioadenosine [Compound 33] | 3900 ± 580 | – | – | – |
| OC[C@H]1O[C@@H](n2cnc3c(NC4CCCC4)nc(Cl)nc32)[C@H](O)[C@@H]1O [2-Cl-CPA, reference compound] | – | 53.1 | – | – |
| OC[C@H]1O[C@@H](n2cnc3c(NC4CCCC4)ncnc32)[C@H](O)[C@@H]1O [CPA, reference compound] | – | – | – | % displacement at 10^−5 M A2A [1]: 45.9%; Ki ([2]; [125I]AB MECA, human A3 receptor in HEK 293 cells, read-out: Ki A3): 281 ± 56 nM; inhibition at 10 µM ([3]; CHO, read-out: % inhib. A1 of forskolin-induced cAMP): 69 ± 3% |
| CNC(=O)[C@H]1O[C@@H](n2cnc3c(NCc4cccc(I)c4)nc(Cl)nc32)[C@H](O)[C@@H]1O [Cl-IB-MECA, reference compound] | – | 23.5 | – | – |
| Nc1nc(I)nc2c1ncn2[C@@H]1O[C@H](CO)[C@@H](O)[C@H]1O [Compound 1, 2-Iodoadenosine] | – | – | – | % displacement at 10^−5 M A1 [4]: 36.1%; Emax ([5]; CHO, read-out: Emax (%) A2A): 112 ± 7%; EC50 [5, 9]: 5.4 ± 0.7 µM |
| CC(C)CC=NNc1nc(N)c2ncn([C@@H]3O[C@H](CO)[C@@H](O)[C@H]3O)c2n1 [Compound 3, 2-(N′-3-Methyl-1-butylidenehydrazino)adenosine] | 20 ± 7 | – | – | % displacement at 10^−5 M A1 [4]: 18.9%; Ki [2]: 38.3 ± 3.3 nM; Emax ([5]; CHO; read-out: Emax (%) A2A): 92 ± 2%; EC50 [5, 9]: 1.1 ± 0.2 µM; agonist behaviour, cAMP production via adenosine A2A receptor [5, 10]: full agonists; agonist behaviour, inhibition of forskolin-induced cAMP via adenosine A3 receptor ([6]; compared to reference full agonist Cl-IB-MECA): partial agonist; Emax at 3 µM ([6]; read-out: Emax (%) A3): 24% |
| CCCCC#Cc1nc(N)c2ncn([C@@H]3O[C@H](CSC)[C@@H](O)[C@H]3O)c2n1 [Compound 37] | 60 ± 20 | – | – | EC50 [5, 9]: 0.7 ± 0.1 µM; Emax (%) A2A ([5]; compared to Emax of CGS 21680 (10 μM) in A2A CHO cells, ±SEM, n = 3; n.a. = not active, no cAMP produced at 30 μM (35) or 100 μM): 45 ± 6% |
| CSC[C@H]1O[C@@H](n2cnc3c(N)nc(NN=CCC(C)C)nc32)[C@H](O)[C@@H]1O [Compound 45, 5′-Deoxy-2-(N′-3-methyl-1-butylidenehydrazino)-5′-methylthioadenosine] | 220 ± 20 | – | – | % displacement at 10^−5 M A1 [4]: 18.9%; Ki [2]: 253 ± 36 nM; Emax ([5]; CHO; read-out: Emax (%) A2A): 44 ± 4%; EC50 [5, 9]: 5 ± 0.6 µM; Emax at 30 µM ([6]; read-out: Emax (%) A3): 41% |
| CCSC[C@H]1O[C@@H](n2cnc3c(N)nc(NN=CCC(C)C)nc32)[C@H](O)[C@@H]1O [Compound 46, 5′-Deoxy-2-(N′-3-methyl-1-butylidenehydrazino)-5′-ethylthioadenosine] | 500 ± 40 | – | – | % displacement at 10^−5 M A1 [4]: 21.2%; Ki [2]: 814 ± 132 nM; Emax ([5]; CHO; read-out: Emax (%) A2A): 101 ± 4%; EC50 [5, 9]: 7.5 ± 0.3 µM; agonist behaviour, cAMP production via adenosine A2A receptor [5, 10]: full agonists; Emax at 100 µM ([6]; read-out: Emax (%) A3): 7% |
| COC[C@H]1O[C@@H](n2cnc3c(NC4CCCC4)ncnc32)[C@H](O)[C@@H]1O [Compound 67, N^6-cyclopentyl-5′-O-methyladenosine] | 366 ± 109 | – | 74 ± 4 | – |
| COC[C@H]1O[C@@H](n2cnc3c(NCc4cccc(I)c4)ncnc32)[C@H](O)[C@@H]1O [Compound 68, N^6-(3-iodobenzyl)-5′-O-methyladenosine] | 373 ± 80 | – | 53 ± 10 | – |
| COC[C@H]1O[C@@H](n2cnc3c(NC4CCCC4)nc(Cl)nc32)[C@H](O)[C@@H]1O [Compound 70, N^6-Cyclopentyl-2-chloro-5′-O-methyladenosine] | 1390 ± 140 | – | 73 ± 4 | – |
| COC[C@H]1O[C@@H](n2cnc3c(NCc4cccc(I)c4)nc(Cl)nc32)[C@H](O)[C@@H]1O [Compound 71, N^6-(3-iodobenzyl)-2-Chloro-5′-O-methyladenosine] | 527 ± 21 | – | 37 ± 15 | – |
| CCOC[C@H]1O[C@@H](n2cnc3c(NC4CCCC4)ncnc32)[C@H](O)[C@@H]1O [Compound 73, N^6-cyclopentyl-5′-O-ethyladenosine] | – | 33.9 | 69 ± 6 | – |
| CCOC[C@H]1O[C@@H](n2cnc3c(NCc4cccc(I)c4)ncnc32)[C@H](O)[C@@H]1O [Compound 74, N^6-(3-Iodobenzyl)-5′-O-Ethyladenosine] | – | 40.4 | 6 ± 21 | – |
| CCOC[C@H]1O[C@@H](n2cnc3c(NC4CCCC4)nc(Cl)nc32)[C@H](O)[C@@H]1O [Compound 76, N^6-cyclopentyl-2-Chloro-5′-O-ethyladenosine] | 1730 ± 700 | – | 62 ± 6 | – |
| CCOC[C@H]1O[C@@H](n2cnc3c(NCc4cccc(I)c4)nc(Cl)nc32)[C@H](O)[C@@H]1O [Compound 77, N^6-(3-iodobenzyl)-2-Chloro-5′-O-ethyladenosine] | 848 ± 60 | – | −72 ± 38 | – |
| O[C@@H]1[C@H](O)[C@@H](COC2CC2)O[C@H]1n1cnc2c(NC3CCCC3)ncnc21 [Compound 79, N^6-Cyclopentyl-5′-O-cyclopropyladenosine] | – | 24.3 | 62 ± 4 | – |
| O[C@@H]1[C@H](O)[C@@H](COC2CC2)O[C@H]1n1cnc2c(NCc3cccc(I)c3)ncnc21 [Compound 80, N^6-(3-Iodobenzyl)-5′-O-cyclopropyladenosine] | – | 43.7 | −104 ± 22 | – |
| O[C@@H]1[C@H](O)[C@@H](COC2CC2)O[C@H]1n1cnc2c(NC3CCCC3)nc(Cl)nc21 [Compound 82, N^6-cyclopentyl-2-Chloro-5′-O-cyclopropyladenosine] | – | 34.6 | 43 ± 9 | – |
| O[C@@H]1[C@H](O)[C@@H](COC2CC2)O[C@H]1n1cnc2c(NCc3cccc(I)c3)nc(Cl)nc21 [Compound 83, N^6-(3-Iodobenzyl)-2-chloro-5′-O-cyclopropyladenosine] | – | 38.7 | −118 ± 41 | – |
| N^6-Cyclopentyl-5′-O-Cyclopropyladenosine [Compound 78] | – | – | 61 ± 2 | – |
